Measurements as given in US6569858B2, “12,13-(pyranosyl)-indolo[2,3-a]pyrrolo[3,4-c]carbazole and 12,13-(pyranosyl)-furo[3,4-c]indolo[2,3-a]carbazoles” (Les Laboratoires Servier, priority 1999, dated 2003).

Tested on: murine leukaemia L1210
Experiment: Murine leukaemia L1210 in vitro cytotoxicity (Microculture Tetrazolium Assay)
Assay type: cell-based
Settings: L1210, exposure 48 hours (four doubling periods); read-out: IC50, the cytotoxic concentration that inhibits proliferation of treated cells by 50%
Experimental: The murine leukaemia L1210 was used in vitro. The cells are cultured in complete RPMI 1640 culture medium comprising 10% foetal calf serum, 2 mM glutamine, 50 units/ml of penicillin, 50 μg/ml of streptomycin and 10 mM Hepes, pH 7.4. The cells are distributed on microplates and are exposed to the cytotoxic compounds for four doubling periods, that is to say 48 hours. The number of viable cells is then quantified by a colorimetric assay, the Microculture Tetrazolium Assay (J. Carmichael et al., Cancer Res., 47, 936-942, (1987)). The results are expressed as IC50, the cytotoxic concentration that inhibits proliferation of treated cells by 50%.

## COC1C(CO)OC2C(C1O)n1c3ccc([N+](=O)[O-])cc3c3c4c(c5c6cc([N+](=O)[O-])ccc6n2c5c31)C(=O)NC4=O [Example 13, 3,9-Dinitro-12,13-[1,2-(4—O-methyl-β-D-mannopyranosyl)]-6,7,12,13-tetrahydro-(5,H)-indolo[2,3-a]pyrrolo[3,4-c]carbazole-5,7-dione]
  IC50: 130 nM

## COC1C(CO)OC2C(C1O)n1c3ccc(Br)cc3c3c4c(c5c6cc(Br)ccc6n2c5c31)C(=O)NC4=O [Example 19, 3,9-Dibromo-12,13-[1,2-(4—O-methyl-β-D-mannopyranosyl)]-6,7,12,13-tetrahydro-(5H)-indolo[2,3-a]pyrrolo[3,4-c]carbazole-5,7-dione]
  IC50: 140 nM
